The values that follow are results of earlier work, collected in patent US7041851B2, “Fluorinated phenyl thiophenyl derivatives and their use for imaging serotonin transporters” (The Trustees of the University of Pennsylvania, priority 2002, dated 2006).

For the data set, the target named is T1, SERT (Rattus norvegicus, UniProt P31652).
T1 construct: from tissue; host or cells: rat brain in vivo (hypothalamus, striatum, hippocampus, cerebellum)
Conditions: cited from earlier work.

T1 sequence (P31652 whole entry): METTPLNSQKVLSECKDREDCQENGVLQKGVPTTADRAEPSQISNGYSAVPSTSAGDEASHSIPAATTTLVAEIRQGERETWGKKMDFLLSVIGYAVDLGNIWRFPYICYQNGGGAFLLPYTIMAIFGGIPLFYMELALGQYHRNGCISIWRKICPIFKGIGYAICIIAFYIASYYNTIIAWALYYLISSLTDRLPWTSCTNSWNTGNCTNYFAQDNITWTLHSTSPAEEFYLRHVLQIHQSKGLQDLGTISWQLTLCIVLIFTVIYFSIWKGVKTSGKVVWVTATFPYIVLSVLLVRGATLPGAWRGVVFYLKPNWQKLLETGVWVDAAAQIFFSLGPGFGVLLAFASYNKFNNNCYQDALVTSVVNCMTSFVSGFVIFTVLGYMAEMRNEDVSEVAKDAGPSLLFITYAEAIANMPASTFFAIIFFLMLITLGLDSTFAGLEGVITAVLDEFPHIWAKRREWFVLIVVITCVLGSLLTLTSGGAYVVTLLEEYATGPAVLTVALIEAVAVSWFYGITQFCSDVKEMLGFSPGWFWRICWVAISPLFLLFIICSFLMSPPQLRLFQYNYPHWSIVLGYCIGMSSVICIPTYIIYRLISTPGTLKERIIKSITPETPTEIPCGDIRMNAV

Take `CN(C)Cc1ccccc1Sc1ccc([125I])cc1N` [[^125I]ADAM]: the “Time of peak uptake” value (comparison with [18F]ACF, hypothalamus region) is 4 h.
With `CN([11CH3])Cc1ccccc1Sc1ccc(CF)cc1N` [AFM], the “Brain uptake and specific binding” value (rats, 11C-labelled, Huang et al., 2001b) is “excellent brain uptake and a high degree of specific binding”.
